biological target: T1, hNav1.8 (Homo sapiens, UniProt Q9Y5Y9); experiment: Nav1.8 manual patch clamp test; type: cell-based; details: CHO cells stably expressing human Nav1.8; whole-cell patch clamp, half-inactivated state; read-out: Inhibitory activity (IC50) against hNav1.8
T1 construct: expressed in transfected cells; host or cells: CHO
Experimental: Nav1.8 Manual Patch Clamp Test
CHO cell lines stably expressing human Nav1.8 were cultured in a Ham's F-12 medium containing 10% fetal bovine serum, 10 μg/mL Blasticidin, 200 μg/mL Hygromycin B and 100 μg/mL Zeocin. The cells were cultured at 37° C. with a carbon dioxide concentration of 5%. The old medium was removed, and the cells were rinsed once with PBS. Then, 1 mL of 0.25%-Trypsin-EDTA solution was added, and the cells were incubated at 37° C. for approximately 1.5 min. Once the cells detached from the bottom of the dish, complete medium pre-warmed to 37° C. was added. The cell suspension was gently triturated with a pipette to dissociate the clumped cells. The cell suspension was transferred to a sterile centrifuge tube and centrifuged at 1000 rpm for 5 min to collect the cells. The cells were seeded into 6 cm cell culture dishes at a density of 2.5×10^5 cells per cell culture dish (final volume: 5 mL) for expansion or maintenance culture. To maintain the electrophysiological activity of the cells, the cell density should not exceed 80%. Before patch clamp testing, the cells were dissociated with 0.25%-Trypsin-EDTA. 6.5×10^3 cells were plated onto coverslips and cultured in 24-well plates (final volume: […]) for 18 hours before detection.
The compound was dissolved in dimethyl sulfoxide (DMSO) and prepared into a 30 mM DMSO stock solution. The stock solution was diluted with the extracellular fluid (140 mM NaCl, 3.5 mM KCl, 1 mM MgCl2·6H2O, 2 mM CaCl2·2H2O, 10 mM D-Glucose, 10 mM HEPES and 1.25 mM NaH2PO4·2H2O; adjusted to pH 7.4 with NaOH) to the test concentration, and the final DMSO concentration of all test samples was 0.1%.
(3) Electrophysiological Test
First, the recording electrodes were pulled from capillary glass tubes by using a microelectrode puller. Then, the electrodes were filled with the intracellular fluid (50 mM CsCl, 10 mM NaCl, 10 mM HEPES, 60 mM CsF and 20 mM EGTA; adjusted to pH 7.2 with CsOH) and mounted onto the microelectrode holder. Under an inverted microscope, the microelectrode manipulator was used to immerse the electrodes into the extracellular fluid, and the pipette resistance (Rpip) was recorded. The electrodes were slowly brought into contact with the cell surface, and negative pressure suction was applied to form a […]. At this point, fast capacitance compensation was performed, and negative pressure was continuously applied to break the cell membrane, forming a whole-cell recording mode. Finally, slow capacitance compensation was performed, and experimental parameters such as series resistance (Rs) were recorded. No electric leakage compensation was applied. When the Nav1.8 current in whole-cell recording was stable, drug administration was initiated, with each drug concentration for approximately 5 min (or until the current was stable). The coverslips spread with the cells were placed in a recording chamber under the inverted microscope. The blank control extracellular fluid and the test compound working solution were perfused through the recording chamber via the gravity-driven perfusion method, thereby acting on the cells, and a peristaltic pump was used to facilitate liquid exchange. The current recorded from cells in compound-free extracellular fluid was used as the control group. All electrophysiological experiments were conducted at room temperature. The inhibition rate of compounds on Nav1.8 was determined by calculating the relative percentage of peak currents generated before and after the cells were treated with the compounds.
The voltage stimulation protocol for whole-cell patch clamp recording of Nav1.8 sodium currents was described as follows. When the whole-cell sealing was formed, the cells were clamped at a voltage of −120 mV. First, the voltage was stepped from −110 mV to −30 mV in 10 mV increments and maintained for 5 s, followed by a depolarizing pulse to 0 mV to obtain a half-inactivation voltage (Vhalf). […]

T1 sequence (Q9Y5Y9 whole entry): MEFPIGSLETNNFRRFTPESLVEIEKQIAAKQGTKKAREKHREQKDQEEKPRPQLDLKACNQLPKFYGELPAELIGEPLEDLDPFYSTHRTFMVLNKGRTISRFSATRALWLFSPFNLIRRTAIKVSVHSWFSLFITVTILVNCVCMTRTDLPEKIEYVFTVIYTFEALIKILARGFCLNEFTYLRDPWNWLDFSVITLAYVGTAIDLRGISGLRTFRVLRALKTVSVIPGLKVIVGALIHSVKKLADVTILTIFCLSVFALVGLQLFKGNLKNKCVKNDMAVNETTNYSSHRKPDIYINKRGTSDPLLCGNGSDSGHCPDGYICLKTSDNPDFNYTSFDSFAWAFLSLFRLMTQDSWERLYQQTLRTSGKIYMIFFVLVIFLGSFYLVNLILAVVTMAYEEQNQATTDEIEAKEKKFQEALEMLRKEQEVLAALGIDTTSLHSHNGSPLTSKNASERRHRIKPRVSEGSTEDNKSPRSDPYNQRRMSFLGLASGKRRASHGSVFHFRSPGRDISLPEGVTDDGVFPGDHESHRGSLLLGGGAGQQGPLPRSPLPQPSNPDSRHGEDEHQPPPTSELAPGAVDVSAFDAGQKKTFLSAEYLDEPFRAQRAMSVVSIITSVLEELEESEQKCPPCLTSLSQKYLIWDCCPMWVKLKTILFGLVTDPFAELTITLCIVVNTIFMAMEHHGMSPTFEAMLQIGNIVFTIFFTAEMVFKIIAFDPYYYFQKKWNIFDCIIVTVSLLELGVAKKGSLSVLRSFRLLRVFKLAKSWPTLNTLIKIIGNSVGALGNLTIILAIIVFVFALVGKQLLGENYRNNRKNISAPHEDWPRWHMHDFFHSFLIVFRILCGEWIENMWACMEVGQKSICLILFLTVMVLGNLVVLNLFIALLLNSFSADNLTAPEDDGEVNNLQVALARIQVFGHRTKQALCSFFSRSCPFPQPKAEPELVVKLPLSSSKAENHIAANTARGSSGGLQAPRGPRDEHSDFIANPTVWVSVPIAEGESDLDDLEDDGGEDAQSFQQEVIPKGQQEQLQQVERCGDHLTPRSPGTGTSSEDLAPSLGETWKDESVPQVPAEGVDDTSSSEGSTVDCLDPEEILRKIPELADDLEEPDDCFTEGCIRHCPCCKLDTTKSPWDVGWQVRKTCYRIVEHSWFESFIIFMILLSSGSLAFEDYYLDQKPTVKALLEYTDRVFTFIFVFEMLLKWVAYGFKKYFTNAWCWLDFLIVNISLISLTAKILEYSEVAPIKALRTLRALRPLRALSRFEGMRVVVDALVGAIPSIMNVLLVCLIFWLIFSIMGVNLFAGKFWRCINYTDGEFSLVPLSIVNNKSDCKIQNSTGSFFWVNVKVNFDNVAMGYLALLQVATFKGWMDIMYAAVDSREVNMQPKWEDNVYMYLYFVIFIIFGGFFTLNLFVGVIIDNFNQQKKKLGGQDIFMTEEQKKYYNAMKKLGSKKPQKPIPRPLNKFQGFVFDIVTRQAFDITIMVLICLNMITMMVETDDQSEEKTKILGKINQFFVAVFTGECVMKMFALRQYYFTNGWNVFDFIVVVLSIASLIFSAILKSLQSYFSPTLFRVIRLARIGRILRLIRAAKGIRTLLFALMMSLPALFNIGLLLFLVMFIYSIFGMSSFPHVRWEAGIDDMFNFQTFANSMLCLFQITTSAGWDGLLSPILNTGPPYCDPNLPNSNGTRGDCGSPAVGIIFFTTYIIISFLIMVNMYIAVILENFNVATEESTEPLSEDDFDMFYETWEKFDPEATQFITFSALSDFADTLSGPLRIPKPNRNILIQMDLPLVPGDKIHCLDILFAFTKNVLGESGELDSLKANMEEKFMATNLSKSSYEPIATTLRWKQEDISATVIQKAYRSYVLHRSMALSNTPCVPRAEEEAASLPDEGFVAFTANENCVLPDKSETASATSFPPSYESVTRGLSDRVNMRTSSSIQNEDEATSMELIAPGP

IC50 [nM] | SMILES
< 0.1 | COc1c(C2C(C(=O)Nc3ccnc(C(N)=O)c3)SC(C)(C(F)(F)F)C2C)ccc(F)c1F (stereo not shown)
< 0.1 | COc1c([C@H]2[C@H](C(=O)Nc3ccc(F)c(S(C)(=N)=O)c3)S[C@@](C)(C(F)(F)F)[C@H]2C)ccc(F)c1F (stereo partly shown)
< 1 | COc1c(C2C(C(=O)Nc3ccnc(OCC(O)CO)c3)SC(C)(C(F)(F)F)C2C)ccc(F)c1F (mixture of isomers) [Mixture of compounds 33-1a and 33-1b]
< 0.1 | COc1c([C@H]2[C@H](C(=O)Nc3ccc[n+]([O-])c3)S[C@@](C)(C(F)(F)F)[C@H]2C)ccc(F)c1F (racemic) [Mixture of compounds 20-1a and 20-1b]
< 0.1 | COc1c(C2C(C(=O)Nc3ccnc(C(N)=O)c3)SC(C)(C(F)(F)F)C2C)ccc(F)c1F (single isomer, unassigned) [Compound 1-2P1]
< 10 | COc1c(C2C(C(=O)Nc3ccnc(C(N)=O)c3)SC(C)(C(F)(F)F)C2C)ccc(F)c1F (single isomer, unassigned) [Compound 1-2P2]
< 1 | COc1c(C2CC(C)(C(F)(F)F)SC2C(=O)Nc2cccc(C(N)=O)c2)ccc(F)c1F (single isomer, unassigned) [Compound 32-1P1]
< 1 | COc1c(C2CC(C)(C(F)(F)F)SC2C(=O)Nc2cccc(C(N)=O)c2)ccc(F)c1F (single isomer, unassigned) [Compound 32-1P2]
< 0.1 | COc1c([C@@H]2C[C@](C)(C(F)(F)F)S[C@H]2C(=O)Nc2ccc(F)c(C(N)=O)c2)ccc(F)c1F (single isomer, unassigned) [Compound 70-a]
< 0.1 | COc1c([C@H]2[C@H](C(=O)Nc3ccnc(C(N)=O)c3)S[C@@](C)(C(F)(F)F)[C@H]2C)ccc(F)c1F [Compound 1-2a]
< 0.1 | COc1c([C@H]2[C@H](C(=O)Nc3ccnc(S(N)(=O)=O)c3)S[C@@](C)(C(F)(F)F)[C@H]2C)ccc(F)c1F [Compound 5-3a]
< 0.1 | COc1c([C@H]2[C@H](C(=O)Nc3cccc(S(N)(=O)=O)c3)S[C@@](C)(C(F)(F)F)[C@H]2C)ccc(F)c1F [Compound 7-1a]
< 0.1 | COc1c([C@H]2[C@H](C(=O)Nc3ccc(F)c(S(N)(=O)=O)c3)S[C@@](C)(C(F)(F)F)[C@H]2C)ccc(F)c1F [Compound 8-1a]
< 1 | COc1c([C@H]2[C@H](C(=O)Nc3ccc(CO)nc3)S[C@@](C)(C(F)(F)F)[C@H]2C)ccc(F)c1F [Compound 18-2a]
< 1 | COc1c([C@H]2[C@H](C(=O)Nc3cnc(CO)nc3)S[C@@](C)(C(F)(F)F)[C@H]2C)ccc(F)c1F [Compound 19-2a]
< 1 | COc1c([C@H]2[C@H](C(=O)Nc3ccc[n+]([O-])c3)S[C@@](C)(C(F)(F)F)[C@H]2C)ccc(F)c1F [Compound 20-1a]
< 0.1 | COc1c([C@H]2[C@H](C(=O)Nc3cccc(S(C)(=O)=O)c3)S[C@@](C)(C(F)(F)F)[C@H]2C)ccc(F)c1F [Compound 22-1a]
< 0.1 | COc1c([C@H]2[C@H](C(=O)Nc3ccnc(S(C)(=O)=O)c3)S[C@@](C)(C(F)(F)F)[C@H]2C)ccc(F)c1F [Compound 25-1a]
< 0.1 | COc1c([C@H]2[C@H](C(=O)Nc3ccc(F)c(S(C)(=O)=O)c3)S[C@@](C)(C(F)(F)F)[C@H]2C)ccc(F)c1F [Compound 26-1a]
< 0.1 | COc1c([C@H]2[C@H](C(=O)Nc3cc[nH]c(=O)c3)S[C@@](C)(C(F)(F)F)[C@H]2C)ccc(F)c1F [Compound 36-2a]
< 1 | COc1c([C@H]2[C@H](C(=O)Nc3ccc(F)c(CO)c3)S[C@@](C)(C(F)(F)F)[C@H]2C)ccc(F)c1F [Compound 48-1a]
< 1 | COc1c([C@H]2[C@H](C(=O)Nc3ccnc(CO)c3)S[C@@](C)(C(F)(F)F)[C@H]2C)ccc(F)c1F [Compound 50]

IC50 [nM] | SMILES
< 1 | COc1c([C@H]2[C@H](C(=O)Nc3ccc(F)c(C(=O)O)c3)S[C@@](C)(C(F)(F)F)[C@H]2C)ccc(F)c1F [Compound 55]
< 1 | COc1c([C@H]2[C@H](C(=O)Nc3cccc(P(C)(C)=O)c3)S[C@@](C)(C(F)(F)F)[C@H]2C)ccc(F)c1F [Compound 57]
< 0.1 | C[C@H]1[C@@H](c2ccc(F)c3c2CCC3)[C@H](C(=O)Nc2ccc(F)c(S(N)(=O)=O)c2)S[C@@]1(C)C(F)(F)F [Compound 59-b]
< 0.1 | C[C@H]1[C@@H](c2ccc(F)c3c2CCC3)[C@H](C(=O)Nc2ccc(F)c(C(N)=O)c2)S[C@@]1(C)C(F)(F)F [Compound 61-b]
< 0.1 | C[C@H]1[C@@H](c2ccc(F)c3c2CCC3)[C@H](C(=O)Nc2ccc(F)c(S(C)(=N)=O)c2)S[C@@]1(C)C(F)(F)F (stereo partly shown) [Compound 63-b]
< 0.1 | C[C@H]1[C@@H](c2ccc(F)c3c2CCC3)[C@H](C(=O)Nc2ccc(F)c(S(C)(=O)=O)c2)S[C@@]1(C)C(F)(F)F [Compound 65-b]
< 1 | C[C@H]1[C@@H](c2ccc(F)c3c2CCC3)[C@H](C(=O)Nc2ccnc(P(C)(C)=O)c2)S[C@@]1(C)C(F)(F)F [Compound 68-b]
< 0.1 | COc1c([C@@H]2C[C@](C)(C(F)(F)F)S[C@H]2C(=O)Nc2ccc(F)c(S(N)(=O)=O)c2)ccc(F)c1F [Compound 72-a]
< 1 | COc1c([C@@H]2C[C@](C)(C(F)(F)F)S[C@H]2C(=O)Nc2ccnc(P(C)(C)=O)c2)ccc(F)c1F [Compound 74-a]
< 1 | COc1c(C2C(C(=O)Nc3ccnc(S(N)(=O)=O)c3)SC(C)(C(F)(F)F)C2C)ccc(F)c1F (stereo not shown) [Mixture of compounds 5-3a and 5-3b]
< 1 | COc1c(C2C(C(=O)Nc3ccc(CO)nc3)SC(C)(C(F)(F)F)C2C)ccc(F)c1F (stereo not shown) [Mixture of compounds 18-2a and 18-2b]
< 1 | COc1c(C2C(C(=O)Nc3cnc(CO)nc3)SC(C)(C(F)(F)F)C2C)ccc(F)c1F (stereo not shown) [Mixture of compounds 19-2a and 19-2b]
< 0.1 | COc1c(C2C(C(=O)Nc3ccnc(S(C)(=O)=O)c3)SC(C)(C(F)(F)F)C2C)ccc(F)c1F (stereo not shown) [Mixture of compounds 25-1a and 25-1b]
< 1 | COc1c(C2C(C(=O)Nc3ccc(F)c(S(C)(=O)=O)c3)SC(C)(C(F)(F)F)C2C)ccc(F)c1F (stereo not shown) [Mixture of compounds 26-1a and 26-1b]
< 0.1 | COc1c([C@H]2[C@H](C(=O)Nc3cccc(C(N)=O)c3)S[C@@](C)(C(F)(F)F)[C@H]2C)ccc(F)c1F [Mixture of compounds 28-2a and 28-2b]
< 1 | COc1cc(F)ccc1C1C(C(=O)Nc2ccnc(C(N)=O)c2)SC(C)(C(F)(F)F)C1C (stereo not shown) [Mixture of compounds 34-1a and 34-1b]
< 0.1 | [2H]C([2H])([2H])Oc1c([C@H]2[C@H](C(=O)Nc3ccnc(C(N)=O)c3)S[C@@](C)(C(F)(F)F)[C@H]2C)ccc(F)c1F [Mixture of compounds 35-8a and 35-8b]
< 0.1 | COc1c(C2C(C(=O)Nc3cc[nH]c(=O)c3)SC(C)(C(F)(F)F)C2C)ccc(F)c1F (stereo not shown) [Mixture of compounds 36-2a and 36-2b]
< 1 | CC1C(c2ccc(F)c3c2CCC3)C(C(=O)Nc2cccc(C(N)=O)c2)SC1(C)C(F)(F)F (stereo not shown) [Mixture of compounds 37-1a and 37-1b]
< 1 | C[C@H]1[C@@H](c2ccc(F)c3c2OCC3(C)C)[C@H](C(=O)Nc2ccnc(C(N)=O)c2)S[C@@]1(C)C(F)(F)F [Mixture of compounds 76-8a and 76-8b]
< 1 | COc1c([C@H]2[C@H](C(=O)Nc3ccnc(P(C)(C)=O)c3)S[C@@](C)(C(F)(F)F)[C@H]2C)ccc(F)c1F [Trifluoroacetate of compound 58]
